Reference: patent US9809542B2, “Spiroheterocyclically substituted tetramic acid derivatives” (BAYER INTELLECTUAL PROPERTY GMBH, priority 2010, dated 2017)

What was measured:
[1] = test system: green peach aphid (Myzus persicae); experiment: Myzus test (MYZUPE spray treatment); assay type: in vivo; conditions: application rate 500 g/ha, Chinese cabbage leaf discs, after 6 days
Procedure: Myzus Test (MYZUPE Spray Treatment)
Solvents: 78 parts by weight of acetone
(§1) • 1.5 parts by weight of dimethylformamide Emulsifier: 0.5 part by weight of alkylaryl polyglycol ether
To produce a suitable preparation of active compound, 1 part by weight of active compound is mixed with the stated amounts of solvents and emulsifier, and the concentrate is diluted with emulsifier-containing water to the desired concentration. Discs of Chinese cabbage (Brassica pekinensis) which are infested by all stages of the green peach aphid (Myzus persicae) are sprayed with an active compound preparation of the desired concentration. After 6 days, the effect in % is determined. 100% means that all aphids have been killed; 0% means that none of the aphids have been killed.

[2] = test system: caterpillars of the armyworm (Spodoptera frugiperda); experiment: Spodoptera frugiperda test (SPODFR spray treatment); assay type: in vivo; conditions: application rate 500 g/ha, maize leaf discs, after 7 days
Procedure: Spodoptera frugiperda Test (SPODFR Spray Treatment)
Solvents: 78.0 parts by weight of acetone
as §1
To produce a suitable preparation of active compound, 1 part by weight of active compound is mixed with the stated amounts of solvents and emulsifier, and the concentrate is diluted with emulsifier-containing water to the desired concentration. Discs of maize leaves (Zea mays) are sprayed with an active compound preparation of the desired concentration and, after drying, populated with caterpillars of the armyworm (Spodoptera frugiperda).
After 7 days, the effect in % is determined. 100% means that all caterpillars have been killed; 0% means that none of the caterpillars have been killed.

[3] = test system: cotton aphid (Aphis gossypii); experiment: Aphis gossypii test; assay type: in vivo; conditions: cotton plants; for Kill rate after 6 days: no additive
Procedure: Solvent: 7 parts by weight of dimethylformamide
Emulsifier: 2 parts by weight of alkylaryl polyglycol ether
To produce a suitable preparation of active compound, 1 part by weight of active compound is mixed with the stated amounts of solvent and emulsifier, and the concentrate is diluted with emulsifier-containing water to the desired concentration. For application with ammonium salts and penetrants (rapeseed oil methyl esters 500 EW) these are in each case added in a concentration of 1000 ppm of a.i. to the spray liquor.
Cotton plants (Gossypium hirsutum) which are heavily infested by the cotton aphid (Aphis gossypii) are sprayed to runoff point with the preparation of active compound at the desired concentration.
After the desired period of time, the kill in % is determined. 100% means that all aphids have been killed; 0% means that none of the aphids have been killed.

[4] = test system: larva of the mustard beetle (Phaedon cochleariae); experiment: Phaedon test (PHAECO spray treatment); assay type: in vivo; conditions: application rate 500 g/ha, Chinese cabbage leaf discs, after 7 days
Procedure: Phaedon Test ([…] Spray Treatment) Solvents: 78.0 parts by weight of acetone • • 1.5 parts by weight of dimethylformamide Emulsifier: 0.5 part by weight of alkylaryl polyglycol ether To produce a suitable preparation of active compound, one part by weight of active compound is mixed with the stated amounts of solvents and emulsifier, and the concentrate is diluted with emulsifier-containing water to the desired concentration. Discs of Chinese cabbage (Brassica pekinensis) are sprayed with an active compound preparation of the desired concentration and, after drying, populated with larva of the mustard beetle (Phaedon cochleariae).

[5] = Penetration of active compounds through enzymatically isolated cuticles of apple tree leaves; assay type: in vitro ADME, apple trees of the cultivar Golden Delicious; conditions: 300 ppm in DMF/emulsifier W 7:1 (w/w), 20° C., 60% rh; for Penetration after 24 h, EC + RME (1 g/l) + AS (1 g/l): + RME 1 g/l + ammonium sulphate 1 g/l; for Penetration after 24 h, EC + RME (1 g/l) + DAHP (1 g/l): + RME 1 g/l + diammonium hydrogenphosphate 1 g/l; for Penetration after 24 h, EC + AS (1 g/l): + ammonium sulphate 1 g/l; for Penetration after 24 h, EC + DAHP (1 g/l): + diammonium hydrogenphosphate 1 g/l; for Penetration after 24 h, EC + RME (1 g/l): + rapeseed oil methyl ester 1 g/l; for Penetration after 24 h, EC: EC alone
Procedure: Example 8: Increase of Penetration into the Plant by Ammonium or Phosphonium Salts and Synergistic Increase of Penetration into the Plant by Ammonium Salts in Combination with Penetrants
In this test, the penetration of active compounds through enzymatically isolated cuticles of apple tree leaves is measured.
Use is made of leaves which, fully developed, are cut from apple trees of the cultivar Golden Delicious. The cuticles are isolated by • initially filling leaf discs punched out and stained with dye on the underside by vacuum infiltration with a pectinase solution (0.2 to 2% strength) buffered to pH between 3 and 4, • then adding sodium azide and • allowing the leaf discs treated in this manner to stand until the original leaf structure has dissolved and the non-cellular cuticles have detached.
Only the cuticles, free from hairs and stoma, of the upper sides of the leaves are then used further. They are washed repeatedly alternately with water and a buffer solution of pH 7. The clean cuticles obtained are then mounted on Teflon plates and smoothed and dried with a gentle stream of air.
In the next step, the cuticle membranes obtained in this manner are placed into stainless steel diffusion cells (=transport chambers) for membrane transport studies. To this end, the cuticles are placed with a pincette into the centre of the edges, coated with silicone fat, of the diffusion cells and closed with a ring, which is also treated with fat. The arrangement is chosen such that the morphological outside of the cuticles is facing outwards, i.e. is exposed to air, whereas the original inside is facing the interior of the diffusion cell.
The diffusion cells are filled with a 30% strength ethylene glycol/water solution. To determine the penetration, in each case 10 μl of the spray liquor of the composition below are applied to the outside of the cuticles. The spray liquor is prepared using local tap water of medium hardness.
After the application of the spray liquors, the water is allowed to evaporate and the chambers are inverted and placed into thermostated tubs in which the temperature and atmospheric humidity over the cuticles can be adjusted using a gentle stream of air onto the cuticles with the spray coating (20° C., 60% rh). At regular intervals, an autosampler takes aliquots and the active compound content is determined by HPLC.
The stated numbers are average values of 8 to 10 measurements. It is clearly evident that even ammonium sulphate on its own improves the penetration markedly, and that, together with RME, a superadditive (synergistic) effect is present.

[6] = test system: Boophilus microplus; experiment: Boophilus microplus test (BOOPMI injection); assay type: in vivo; conditions: application rate 20 μg/animal; injection into the abdomen; after 7 days
Procedure: Boophilus microplus Test (BOOPMI Injection)
Solvent: Dimethyl sulphoxide
To produce a suitable preparation of active compound, 10 mg of active compound are mixed with 0.5 ml of solvent and the concentrate is diluted with solvent to the desired concentration. The solution of active compound is injected into the abdomen (Boophilus microplus) and the animals are transferred into dishes and stored in a climatized room. The activity is monitored for deposition of fertile eggs.
After 7 days, the effect in % is determined. 100% means that none of the ticks has laid any fertile eggs.

## CON1CCC2(CC1)NC(=O)C(c1c(C)ccc(-c3ccc(F)cc3)c1C)=C2O [I-a-1]
[1]
  efficacy (effect in %, aphids killed): 90%
[2]
  efficacy (effect in %, caterpillars killed): 83%
[3]; 20 ppm
  Kill rate after 6 days, +AS (1000 ppm): 40%
  Kill rate after 6 days, +RME (1000 ppm): 55%
  Kill rate after 6 days, +RME + AS (1000 ppm each): 100%
  Kill rate after 6 days: 0%
[4]
  efficacy (effect in %, beetle larva killed): 83%
[5]
  Penetration after 24 h, EC + RME (1 g/l) + AS (1 g/l): 19%
  Penetration after 24 h, EC + RME (1 g/l) + DAHP (1 g/l): 15%
  Penetration after 24 h, EC + AS (1 g/l): 3.8%
  Penetration after 24 h, EC + DAHP (1 g/l): 2.3%
  Penetration after 24 h, EC + RME (1 g/l): 0.8%
  Penetration after 24 h, EC: <0.2%
[6]
  efficacy (effect in %, 100% = none of the ticks has laid any fertile eggs): 95%

## CCON1CCC2(CC1)NC(=O)C(c1c(C)ccc(-c3ccc(F)cc3)c1C)=C2O [I-a-2]
[1]
  efficacy (effect in %, aphids killed): 100%
[2]
  efficacy (effect in %, caterpillars killed): 100%
[3]; 4 ppm
  Kill rate after 6 days, +AS (1000 ppm): 0%
  Kill rate after 6 days, +RME (1000 ppm): 0%
  Kill rate after 6 days, +RME + AS (1000 ppm each): 45%
  Kill rate after 6 days: 0%
[3]; 20 ppm
  Kill rate after 6 days, +AS (1000 ppm): 25%
  Kill rate after 6 days, +RME (1000 ppm): 20%
  Kill rate after 6 days, +RME + AS (1000 ppm each): 90%
  Kill rate after 6 days: 0%
[4]
  efficacy (effect in %, beetle larva killed): 100%
[5]
  Penetration after 24 h, EC + RME (1 g/l) + AS (1 g/l): 17%
  Penetration after 24 h, EC + RME (1 g/l) + DAHP (1 g/l): 21%
  Penetration after 24 h, EC + AS (1 g/l): 3.8%
  Penetration after 24 h, EC + DAHP (1 g/l): 3.9%
  Penetration after 24 h, EC + RME (1 g/l): 1.7%
  Penetration after 24 h, EC: 1.4%
[6]
  efficacy (effect in %, 100% = none of the ticks has laid any fertile eggs): 90%
